Measurements reported in a melting point compilation (Tetko et al.; mined from patent text by program, amines drawn as free bases though some values may be those of a salt).

Row | Compound | melting point
1 | O=C(O)c1cccc2cc(-c3ccc(Cl)cc3)oc12 | 228 to 230 °C
2 | CC(C)(C)OC(=O)N1C[C@@H](S)C[C@@H]1CN(C(=O)OC(C)(C)C)S(N)(=O)=O | 90 to 91.5 °C
3 | COc1ccc(-c2cnc(C(N)=O)nc2)cc1OC1CCCC1 | 235 to 238 °C
4 | CC(=O)NC1(C)CCCc2nc(OCc3ccccc3)ccc21 (configuration not stated) | 153 to 154 °C
5 | COc1ccc2c(Cc3nc4c(F)c(F)cc(F)c4s3)cn(CC(=O)O)c2c1 | 118 to 120 °C
6 | COc1cc(C)c(CNCCc2ccc(O)cc2)cc1O | 122 to 124 °C
7 | CN(C)c1nc2cc(NC(=O)c3c(C(=O)N4CC(F)C4)cnn3C)ccn2n1 | 243 to 244 °C
8 | O=C(c1ccc(CBr)cc1)c1ccc(CBr)cc1 | 118 to 119 °C
9 | NC(=C[N+](=O)[O-])NC1CCCC1 | 117 to 124 °C
10 | COc1ccc(Cn2c(=O)[nH]c(=O)c3c2nc(C(C)(C)C)n3Cc2ccccc2)cc1 | 170 to 172 °C
11 | Nc1c([N+](=O)[O-])cc(F)c(Cl)c1F | 96 to 97 °C
12 | O=C(O)c1ccccc1Sc1cccc2c1C(=O)NC2=O | 289 to 290 °C
13 | Cc1[nH]cnc1Cc1cccc(CO)c1O | 126 to 130 °C
14 | CC(C)(C)c1cc(SC(=O)NN)cc(C(C)(C)C)c1O | 130 to 131 °C
15 | Cc1n[nH]c(C)c1-c1ccc(OC2SCC(O)C(O)C2O)cn1 (configuration not stated) | 210 °C
16 | COc1cc(OCC(=O)N[C@H]2CCN(Cc3ccccc3)C2)ccc1C(=NN)C(=O)c1ccc(O)c(N)c1 | 139 to 141 °C
17 | CNC(=O)c1ccc([C@@H]2C[C@H]3C=C(c4c[nH]c(-c5ccc(F)c(Cl)c5)c4-c4ccncc4)CCN3C2)cc1 | 176 to 178 °C
18 | CCCCCCCNC(=O)Oc1ccc2c(c1)N(Cc1ccccc1)CCC2 | 50 °C
19 | CC(C)Oc1cc(CCC(=O)O)n(Cc2ccc(Cl)cc2Cl)n1 | 114 to 115 °C
20 | O[C@@H]1CNC[C@H](c2ccc(C(F)(F)F)cc2)C1 (relative stereo) | 189 to 192 °C
21 | COc1cc(Nc2nccc(-c3sc(-c4cccnc4)nc3C)n2)cc(OC)c1 | 229 to 230 °C
22 | CC(C)Cc1nc2ccc(Cl)cc2c(-c2ccccc2)c1CO | 130 to 131 °C
23 | COc1cc2cc3c(ccc4ccccc43)nc2cc1OC | 181 to 182 °C
24 | CC(C)(C)OC(=O)N1CCC(O)(CS(=O)(=O)NC(c2ccccc2)c2ccccc2)CC1 | 121 to 123 °C
25 | N#Cc1cc([N+](=O)[O-])ccc1N1CCC(NCCO)CC1 | 115 °C
26 | CC(C)(CCc1ccc(NC=NO)cc1)CN1CCCC1 | 120 to 122 °C

Row | Compound | melting point
27 | NCC1Cc2c(ccc3c2CCCC3)O1 (configuration not stated) | > 225 °C
28 | CCCC1(CC(=O)O)OC=CC2=C1NC1=C3CCCCC3CCC21 (configuration not stated) | 78 to 80 °C
29 | Nc1nc2nc(N3CCNCC3)nc(N)c2nc1-c1ccccc1 | 233 to 236 °C
30 | CN(Cc1nnc2n1-c1ccc(Cl)cc1C(c1ccccc1)=NC2)CC1CC1 | 171 to 176 °C
31 | Cc1nnsc1C(=O)Nc1ccc(-n2nc(-c3cccnc3)cc2C#N)cc1 | 215 to 218 °C
32 | COC(=O)C1Cc2cc3c(cc2C(=O)CS1)OCO3 (configuration not stated) | 165 to 166 °C
33 | CCOC(=O)c1cc2n(C)c3ccccc3c(=O)n2n1 | 239 to 241 °C
34 | O=C(O)c1cccc(OC(F)(F)C(F)Cl)c1 (configuration not stated) | 79 to 85 °C
35 | CC(C)(C)c1csc(-c2cc3cc(OCc4cccc(C#N)c4)ccc3o2)n1 | 104 to 106 °C
36 | CC(CC#N)Nc1cc(Oc2ccc(S(=O)(=O)C(C)C)cc2Cl)ccc1[N+](=O)[O-] (configuration not stated) | 132 °C
37 | N#Cc1cc([N+](=O)[O-])cc(O)c1O | 186 to 188 °C
38 | Cc1nc2n(c(=O)c1CCN1CCC(C(=O)c3ccc(F)cc3)CC1)CCS2 | 166 °C
39 | COC(=O)C(c1ccc(O)cc1)N1CC(N2C(=O)c3ccccc3C2=O)C1=O (configuration not stated) | 203 to 204 °C
40 | CCOC(=O)c1ccc(Cn2c(C)nc3cnccc32)cc1 | 164 to 166 °C
41 | CC(C)CCSCC[C@H](O)[C@@H](N)CC(C)C | 64 to 65 °C
42 | CC(C)(C)ONc1ccccc1 | 67 to 69 °C
43 | CCOC(=O)C1C(c2ccc(OC)cc2)=NCC1c1ccc2c(c1)OCO2 (configuration not stated) | 80 to 81 °C
44 | FC(F)(F)c1cc(Cl)c(-n2cc(C3CC3(Br)Br)nn2)c(Cl)c1 (configuration not stated) | 156 to 158 °C
45 | CCOC(=O)C1(C)C(=O)Nc2cc(N)ccc21 (configuration not stated) | 248 °C
46 | CC(C)(C)[Si](C)(C)OCC1(CO[Si](C)(C)C(C)(C)C)c2ccccc2-c2ccccc21 | 84 °C
47 | O=C(O)CCc1cccc(OCc2nc(-c3ccccc3)c(-c3ccccc3)o2)c1 | 118 to 120 °C
48 | CC(C)COc1cc(N(C)C)ccc1C(=O)c1ccccc1C(=O)O | 199 to 201 °C
49 | CC(=O)OCC1CCn2c(c(C3=C(c4coc5ccccc45)C(=O)NC3=O)c3ccccc32)C1 (configuration not stated) | 234 to 237 °C
50 | CCOC(=O)c1cnc2ccn(-c3ccccc3)n2c1=O | 187 to 190 °C
51 | COC(=O)c1c(S(N)(=O)=O)c(C)nn1-c1ccccn1 | 170 to 172 °C

Next, values leading:

Row | melting point | Compound
52 | 139 °C | O=C1CN[C@@H](c2ccccc2)[C@@H](c2ccccc2)O1
53 | 175 to 177 °C | COc1cc2c(cc1OCc1ccccc1)CC(C)(C)N(C(=O)c1cc(OC)c(OC)c(OC)c1)C2C (configuration not stated)
54 | 178 to 180 °C | O=C(O)c1cc(CO)nn1-c1ncccc1Cl
55 | 70 to 72 °C | Nc1ccccc1NC(=O)c1ccc(CNC(=O)c2[nH]c(-c3ccoc3)cc2-c2ccc(O)cc2)cc1
56 | 66 to 68 °C | CS(=O)(=O)OCCc1ccc(-c2cccnc2)cc1
57 | 169 to 170 °C | O=C1CCCC(=O)c2cc(OCc3ccccc3)ccc2N1
58 | 150 °C | CSc1c(C(=O)O)ccc(Cl)c1F
59 | 231 to 232 °C | C[C@@H](n1cnc2cc(-c3ccc(C#N)cc3)sc2c1=O)[C@](O)(Cn1cncn1)c1ccc(F)cc1F
60 | 219 to 220 °C | O=c1[nH]c2cc(Cl)c(Cl)cc2n1[C@@H]1C[C@H](CO)[C@@H](O)[C@H]1O
61 | 117 to 118 °C | OCc1sc2cc(Br)ccc2c1Cl
62 | 173 to 174 °C | COc1cc2cc(-c3c(F)cccc3F)sc2c(Cl)c1Cl
63 | 263 to 265 °C | O=C(O)c1cc2cc3c(cc2c2cc(OCc4ccccc4)ccc12)OCO3
64 | 168 to 170 °C | COc1cc2c(c3ccccc13)Nc1ccccc1S2
65 | 99.1 to 99.2 °C | COCCCOc1ccc(CCC(=O)O)c(Oc2ncc(C(F)(F)F)cc2Cl)c1
66 | 166 to 170 °C | CCOC(=O)c1cc(=O)c2c3c(ccc2o1)C(=O)CC(C(=O)OC)=N3
67 | 206 to 207 °C | O=C(NCc1ccccn1)Nc1cc(N2C(=O)COc3ccccc32)ccn1
68 | 83 °C | C=C(C#N)C(=O)NCCCc1ccccc1
69 | 121 to 126 °C | CCOCC(=O)Nc1nc(-c2ccco2)c(C(=O)C2CCOCC2)s1
70 | 194 °C | CCc1ccc(C=NNC(=O)c2ccc(O)cc2)s1
71 | 175 to 177 °C | NC(=O)c1cc(NCc2cccc(F)c2)c([N+](=O)[O-])cc1[N+](=O)[O-]
72 | 244 to 245 °C | Cc1ccnn(-c2cccc(Cl)c2)c1=O
73 | 173 to 174 °C | O=C(O)Cc1csc(-c2ccccc2O)n1
74 | 181 to 183 °C | COc1cn(-c2cccc3c2OC(F)(F)O3)nc(-c2ccnn2-c2ccccc2)c1=O
75 | > 230 °C | Cn1cc(/C=C/c2ccc3ccccc3n2)cc1C(=O)O
76 | 154 to 155 °C | CC(=O)SC1CC(=O)N1C(C(=O)OCc1ccc([N+](=O)[O-])cc1)=P(c1ccccc1)(c1ccccc1)c1ccccc1 (configuration not stated)
77 | 180 °C | O=C1c2cccc(NC(=S)Nc3ncccc3Br)c2C2CCCCN12 (configuration not stated)

Row | melting point | Compound
78 | 198 to 200 °C | CC1(O)CCC2(C)C(CCC3C2CCC2(C)C(c4cc(CO)on4)CCC32)C1 (configuration not stated)
79 | 110 to 111 °C | COc1cc(-c2nc(N)sc2CCC2CCCCC2)c(OC)cc1Cl
80 | 90 °C | CCS(=O)(=O)Nc1c(C)cccc1C
81 | 188 to 190 °C | Brc1ccc2c(c1)CN(Cc1c[nH]c3ccccc13)C2
82 | 241 to 243 °C | O=c1cc(O)n(-c2cccc(C(F)(F)F)c2)nc1-c1ccnn1-c1ccccc1
83 | 166 to 170 °C | Nc1cc(OCc2ccccc2)ccc1NC(=O)c1ccc(OCc2ccccc2)c(C23CC4CC(CC(C4)C2)C3)c1
84 | 204 to 205 °C | CC(C)NC(=O)C1c2cc(NC(=O)c3cc(C(F)(F)F)nn3-c3ncccc3Cl)c(Cl)cc2CC1O (configuration not stated)
85 | 294 °C | O=C(NNC(=O)c1ccc([N+](=O)[O-])cc1)c1ccc([N+](=O)[O-])cc1
86 | 132 to 134 °C | O=c1ccn(C2CC(O)C(CNC(c3ccccc3)(c3ccccc3)c3ccccc3)O2)c(=O)[nH]1 (configuration not stated)
87 | 320 to 321 °C | O=C(O)c1ccc2c(c1)C(=O)c1cc3c(cc1OC2)OCO3
88 | 78 to 79 °C | O=CNc1c(-c2ccccc2)sc2ccccc12
89 | 243 °C | O=c1ccc(O)nn1-c1ccc(OC(F)(F)F)cc1
90 | 116 to 117 °C | Cc1cc(Oc2c(F)cc(C(F)(F)F)cc2Cl)n[nH]1
91 | 35 to 37 °C | FC(F)(F)c1ccc(-c2cc(C(F)(F)F)cc(Br)n2)cc1
92 | 158 to 159 °C | CN(C)Cc1cccc2nc3n(c12)CCCN3c1ccc(Cl)cc1Cl
93 | 184 to 185 °C | CN(C)NC(=O)C1(N2C(=O)c3cccc(Cl)c3C2=O)CCCCC1
94 | 98 to 100 °C | COc1ccc(C2(O)C(c3ccccc3Cl)SC3=NCCCCN32)cc1OC (configuration not stated)
95 | 238 to 240 °C | CN1CCN(c2ccc(Nc3ncc4c(n3)SC(=Cc3ccc(OCc5ccccc5)cc3)C(=O)N4)cc2)CC1
96 | 199 to 201 °C | O=C1c2c(-c3ccccc3)cc(CO)nc2OCCN1Cc1cc(C(F)(F)F)cc(C(F)(F)F)c1
97 | 229 to 231 °C | CC(O)COc1cccc2oc(C(N)=O)cc(=O)c12 (configuration not stated)
98 | 53 to 54 °C | CC(C)CCCOc1nc(N)c([N+](=O)[O-])cc1Cl
99 | 145 to 147 °C | CCOC(=O)c1c(OC)c([N+](=O)[O-])cn1C
100 | 222 to 224 °C | O=Cc1cc2cc3c(cc2nc1Cl)OCCO3
101 | 89 to 93 °C | COc1ccc(CCc2ccncc2)c2c1OCC2C (configuration not stated)
102 | 164 °C | CN(C)CC(=O)Nc1cccc2nc(NC3CCc4cc(F)ccc43)ccc12 (racemic)
